The record followed here is patent publication US4898975A, “Water soluble organic ammonium per halides” (Great Lakes Chemical Corporation, priority 1989, dated 1990).

Data set [1] is classed as physicochemical. As to conditions: closed bottle. The procedure: In order to determine the shelf life stability of the perbromide solutions, a series of studies were conducted to determine the percent bromine lost over time. The following tables shown below list the perbromides studied and the percent oxidizable bromine lost over time. The perbromides studied were kept in closed bottles in ambient conditions (Table 7) and at 50° C.

Data set [2] is described as follows: Titration of oxidizable bromine (Standard Methods, Method 408A). Type of data set: physicochemical. The note with it: for Ox. Br2: of the sample used for vapor pressure (Table 9).
Data set [3] is described as follows: Vapor pressure of aqueous organic ammonium perbromides (isoteniscope). Type of data set: physicochemical. The note with it: for Vp: 26° C. (Table 9). The procedure:
The vapor pressures of the aqueous organic ammonium perbromides were measured using an isoteniscope as described by Farrington, et al. [Farrington, D.; Alberti, R.; William, S.; Corwell, C.; Bender, P; and Harriman, S. Experimental Physical Chemistry, Experiment 17, pp. 164-165, 7th Edition, McGraw Hill Publishing Co., New York, 1976].

Another data set can be described thus: physchem. The note with it: water.
Data set [4] can be described thus: Water solubility of perbromides.
The mark [5] stands for this setting: 50° C., time elapsed 40 (months).
[6] abbreviates: 50° C., time elapsed 40 (months), 1.752e+06 min.
Setting [7] is: completely soluble perbromides, aqueous solution (Table 1).
[8] abbreviates: partially soluble perbromides, separated liquid phase (Table 2).
Where [9] appears, read: concentrated and anhydrous perbromides (Table 4).
Where [10] appears, read: higher aqueous ethanolammonium perbromides (Table 6).

Where two headings read alike, the source gives them in different places.

Turning to `NCCO` [Compound 1, Ethanolammonium Perbromide], the figures for the “Initial Ox. Br2” value in data set [1] (50° C.) and in data set [1] (ambient temperature) were 40.8 % by Weight and 40.1 % by Weight, respectively. Also, the “Change in % Br2” value in data set [1] (setting [5]) is reported as 1.8%; in data set [1] (ambient temperature, 24 months), 1.6%. Besides, the “Final Ox. Br2” value is on record as 39.0 % by Weight in data set [1] (setting [5]) and 38.5 % by Weight in data set [1] (ambient temperature, 24 months). Also, the “Relative Change in % Br2” value came out at 4.4% in data set [1] (setting [6]) and 4.0% in data set [1] (ambient temperature, 24 months, 1.0512e+06 min).
For `CCCN` [Compound 3, Propylammonium Perbromide], the “Tit. Ox. Br2” value in data set [2] (setting [7]) amounted to 39.3 % by Weight. Besides, the Vp in data set [3] is listed as 36 mmHg.
In the case of `OCCNCCO` [Compound 4, Diethanolammonium Perbromide], in data set [1] (50° C.), the “Initial Ox. Br2” value is 37.0 % by Weight. In addition, in data set [1] (setting [5]), the “Change in % Br2” value stood at 7.0% and the “Final Ox. Br2” value amounted to 30.0 % by Weight. Moreover, the “Relative Change in % Br2” value in data set [1] (setting [6]) was found to be 18.9%. Moreover, the Vp in data set [3] is 49 mmHg.
Consider `CNCCO` [Compound 5, Methylethanolammonium Perbromide], for which, in data set [2] (setting [7]), the “Tit. Ox. Br2” value is recorded as 39.3 % by Weight. In addition, in data set [2], the “Ox. Br2” value worked out at 39.3 % by Weight. Moreover, the Vp in data set [3] is reported as 28 mmHg.
`CCNCCO` [Compound 6, Ethylethanolammonium Perbromide]: the “Tit. Ox. Br2” value in data set [2] (setting [7]) is 37.7 % by Weight.
With `CN(C)CCO` [Compound 7, Dimethylethanolammonium Perbromide, reference compound], the Vp in data set [3] stood at 30 mmHg.
Take `CCCCCCN` [Compound 8, Hexylammonium Perbromide]: the “Tit. Ox. Br2” value in data set [2] (setting [7]) is recorded as 36.1 % by Weight.
Still for that read-out and setting: under `CCCCCCCCN` [Compound 9, Octylammonium Perbromide] stands 34.7 % by Weight.
For the compound `CCCNCCC` [Compound 10, Dipropylammonium Perbromide], the “Tit. Ox. Br2” value in data set [2] (setting [8]) was 45.1 % by Weight. The same compound returned a solubility in “physchem” of 100 mg/mL.
`CCCCNCCCC` [Compound 11, Dibutylammonium Perbromide]: in data set [2], the “Ox. Br2” value is 43.3 % by Weight. Also, the “Tit. Ox. Br2” value in data set [2] (setting [8]) turned out to be 40.9 % by Weight. In data set [1] (ambient temperature, 16 months), the “Change in % Br2” value is 2.1% and the “Final Ox. Br2” value is 41.1 % by Weight. Further, the “Relative Change in % Br2” value in data set [1] (ambient temperature, 16 months, 700800 min) is reported as 4.9%. Moreover, the “Initial Ox. Br2” value in data set [1] (ambient temperature) came out at 43.2 % by Weight. The same compound gave a Vp in data set [3] of 38 mmHg. The solubility in data set [4] was found to be 10 mg/mL.
For `CCCCN(CCCC)CCCC` [Compound 12, Tributylammonium Perbromide, reference compound], the “Ox. Br2” value in data set [2] is 37.5 % by Weight. The “Tit. Ox. Br2” value in data set [2] (setting [8]) came out at 36.0 % by Weight. In data set [3], this compound displayed a Vp of 28 mmHg.
In the case of `CCN(CC)CCO` [Compound 14, Diethylethanolammonium], the “Tit. Ox. Br2” value in data set [2] (setting [8]) amounted to 42.3 % by Weight. Moreover, in data set [4], the “Solubility in water (in words)” value was “only sparingly soluble in water” and the solubility was 1 mg/mL.
For `NCCCCCCN` [Compound 16, 1,6-Hexanediammonium], the “Tit. Ox. Br2” value in data set [2] (perbromides precipitated out of aqueous solution (Table 3)) was determined as 51.8 % by Weight. In addition, the solubility in “physchem” was found to be 500 mg/mL.
For the compound `NCCO` [Compound 18, Ethanolammonium Perbromide], the “Tit. Ox. Br2” value in data set [2] (setting [9]) is recorded as 51.8 % by Weight.
In the case of `CCCN` [Compound 19, Propylammonium Perbromide], in data set [2] (setting [9]), the “Tit. Ox. Br2” value is 53.2 % by Weight.
Take `OCCNCCO` [Compound 20, Diethanolammonium Perbromide]: the “Tit. Ox. Br2” value in data set [2] (setting [9]) was 45.3 % by Weight.
Turning to `NCCO` [Compound 26], the “Tit. Ox. Br2” value in data set [2] (setting [10]) came to 52.6 % by Weight.
In the case of `NCCO` [Compound 27], the “Tit. Ox. Br2” value in data set [2] (setting [10]) worked out at 57.7 % by Weight. The “Ox. Br2” value in data set [2] stood at 57.7 % by Weight. This compound also returned a Vp in data set [3] of 116 mmHg.
`NCCO` [Compound 28]: the “Tit. Ox. Br2” value in data set [2] (setting [10]) came to 63.9 % by Weight.
On the same count and under the same terms, under `NCCO` [Compound 29] stands 72.6 % by Weight.
As for `BrBr` [Compound 35, Bromine, reference compound], the “Ox. Br2” value in data set [2] is given as 100 % by Weight. Moreover, in data set [3] (26° C.), the vapor pressure entry is “approximately 220 mm Hg”. Further, the Vp in data set [3] came out at 223 mmHg.
“Ethanolammonium Perbromide [Compound 21]”: the “Relative Change in % Br2” value in data set [1] (29200 h) stood at 3.1%; in data set [1] (ambient, 17520 h), 2.0%.
Consider NaBr3 [Compound 33, reference compound], for which the “Ox. Br2” value in data set [2] is 37.9 % by Weight. Moreover, in data set [3], the vapor pressure turned out to be 140 mm Hg and the Vp was determined as 145 mmHg.
Turning to Propylammonium Perbromide [Compound 22], the “Relative Change in % Br2” value is on record as 2.7% in data set [1] (29200 h) and 2.3% in data set [1] (ambient, 17520 h).

In general, solubility refers to the concentration that dissolves in the medium under given conditions. Lower therefore signals little dissolved substance.
